Laboratory results taken from patent US6153611A, “Piperazinyl-cyclohexanes and cyclohexenes” (Bristol-Myers Squibb Company, priority 1993, dated 2000).
Read-outs that look alike come from different tables or passages of the source.

Key:
Dopamine D2 = biological target: T1, Dopamine D2 (Rattus norvegicus, UniProt P61169); assay: Dopamine D2 Binding Assay ([3H]Spiperone, corpus striatum membranes); set-up: species or system male Sprague-Dawley rats; settings: [3H]Spiperone 0.1 nM, 37° C., 15 min
T1 construct: The corpus striatum was crudely dissected and frozen on dry ice; from tissue; host or cells: rat corpus striatum membranes (male Sprague-Dawley rats, Charles River)
Procedure: Activity at D2 sites is measured using the screening process set out in Example 67.
Dopamine D2 Binding Assay
Dopamine D2 affinity was determined according to the procedures of Burt, Creese and Snyder [Molecular Pharmacology 12,800 (1976); Science 196, 326 (1977); Science 192, 481 (1976)]. Briefly, male Sprague-Dawley rats (Charles River) were decapitated, brains rapidly removed and chilled in ice-cold 50 mM Hepes/KOH buffer (pH 7.4, 20° C.). The corpus striatum was crudely dissected and frozen on dry ice. Tissue was pooled and stored at -80° C. until use. On the day of assay, tissue was thawed in 20 ml ice-cold Hepes/KOH buffer, and homogenized with a polytron for 15 sec at 18,000 rpm. The homogenate was centrifuged (39,000×g, 10 min, at 4° C.). The supernatant was discarded and the pellet rehomogenized in ice-cold Hepes/KOH buffer and recentrifuged as described previously. The supernatant was again discarded and the pellet resuspended (1:100) in ice-cold Hepes/KOH buffer (pH 7.4, 20° C., containing 120 mM NaCl, 5 mM KCl, 1 mM MgCl2, 0.1% (w/v) ascorbic acid, and 10 μM pargylline, and stored on ice until assay. The binding assay (1 ml total volume) was performed in duplicate and initiated by the addition of 800 μl membrane homogenate to tubes containing 100 μl [^3 H]Spiperone (0.1 nM final concentration), and 100 μl competitor, buffer, or butaclamol, which was used to define the non-specific binding. The assay was incubated at 37° C. for 15 min, afterwhich the assay was terminated by rapid filtration.
In vitro IC50 test values for binding to the D2 receptor were determined for representative compounds of Formula I by the method of Burt, Creese, and Snyder, Molecular Pharmacology 12, 800 (1976); Creese, Burt, and Snyder, Science 196, 326 (1977); and Creese, Burt and Snyder, Science 192, 481 (1976). Test IC50 values greater than 1,000 nM are considered to reflect inactivity at the D2 receptor, indicating the risk of extrapyramidal side effects is small.

sigma receptor = biological target: T2, sigma receptor (Cavia porcellus, UniProt Q60492); assay: Sigma binding (method of Tam and Cook)
T2 construct: from tissue
Procedure: In vitro IC50 test values for binding to the sigma receptor were determined for representative compounds of Formula I by the method of Tam and Cook [see: Tam, S. W., and Cook, L: Proc. Natl. Acad. Sci. USA 81, 5618-5621 (1984)] with only minor modifications. Test IC50 values lower than 100 nM are considered to reflect activity at the sigma receptor.

brain ischemia = assay: Anoxic Nitrogen Test in Rats; type: in vivo, male Sprague-Dawley rats; settings: Rattus norvegicus, sc, subcutaneously, 2 hr survival, read-out: Nitrogen Anoxia % Survival
Text: Most specifically, administration of the compounds of Formula I results in protection against hypoxia-induced death in an anoxic nitrogen test in rats (Example 66). The test identifies the neuro-protective effects of substances against lethal brain damages produced by a lack of oxygen consumption (anoxia). In this test procedure, control animals exposed for one minute to a pure nitrogen atmosphere will expire because of respiratory failure caused by irreversible damage to the brain respiratory center.
Anoxic Nitrogen Test in Rats
The animals utilized are male Sprague-Dawley rats (200-400 grams) housed four animals per cage in a normal controlled environment with unlimited access to food and water. Usually there are 8 animals per dose, however, […] can be employed to obtain an initial impression of a compound's activity. Animals are parenterally or orally administered the vehicle or test compound 30 minutes before the anoxic insult. The anoxic episode consists of placing up to 8 animals in the sealed test chamber (10" l×10" w×6" h) continuously flushed with pure N2 (4.5 grade) at a flow rate of 5 SCFM for 1 min. Animals are then promptly removed to normal atmosphere and observed for the 2 hour period. Typically, animals become disoriented within 15 sec after which they remain motionless.
Even though the heart is still beating after the N2 exposure, all control animals fail to gasp when removed from the chamber and usually expire within 3 minutes. Drug treated animals, however, still gasp or start gasping after being removed, which is a good indication that the animals will survive the N2 exposure [see Wauquire, A., et al: Arch. Int. Pharmacodyn., 249, 330-334 (1981); Wauquier, A., et al: Drug Dev. Res., 8, 373-380 (1986)]. Results are recorded as:
(Number of animals surviving (2 hr))/(Number of animals tested)×100%
The anoxic nitrogen test is an in vivo model of brain ischemia in rats [see: Wauquire, A., et al: Arch. Int. Pharmacodyn., 249, 330-334 (1981); Wauquier, A., et al: Drug Dev. Res., 8, 373-380 (1986)]. Compounds of the present invention are active in this in vivo model of brain ischemia when given subcutaneously in the doses indicated in Table 2, thus providing additional evidence that the present compounds will be useful in the treatment of brain ischemia.

T1 sequence (P61169 whole entry): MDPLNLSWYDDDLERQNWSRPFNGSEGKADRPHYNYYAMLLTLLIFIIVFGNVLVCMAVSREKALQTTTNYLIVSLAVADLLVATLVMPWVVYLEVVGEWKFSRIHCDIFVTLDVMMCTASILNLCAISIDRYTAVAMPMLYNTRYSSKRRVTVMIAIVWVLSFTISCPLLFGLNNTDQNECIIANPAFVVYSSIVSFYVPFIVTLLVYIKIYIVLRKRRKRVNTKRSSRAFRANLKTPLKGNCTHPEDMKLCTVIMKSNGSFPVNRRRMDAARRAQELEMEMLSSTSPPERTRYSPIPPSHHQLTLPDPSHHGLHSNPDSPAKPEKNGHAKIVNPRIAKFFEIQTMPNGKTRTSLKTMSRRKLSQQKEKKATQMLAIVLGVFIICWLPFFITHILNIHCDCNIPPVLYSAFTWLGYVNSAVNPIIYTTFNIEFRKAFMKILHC
T2 sequence (Q60492 whole entry): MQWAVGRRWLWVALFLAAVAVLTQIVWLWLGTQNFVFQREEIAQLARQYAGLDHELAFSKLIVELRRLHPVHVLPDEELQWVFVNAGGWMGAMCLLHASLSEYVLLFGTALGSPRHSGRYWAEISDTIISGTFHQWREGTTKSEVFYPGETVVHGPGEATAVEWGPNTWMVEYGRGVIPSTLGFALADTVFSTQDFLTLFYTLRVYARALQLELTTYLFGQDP

Structure (SMILES) | IC50 (Dopamine D2) [µM] | IC50 (sigma receptor) [µM] | responders at 10 mg/kg (brain ischemia; 10 & 60 mg/kg) [%] | responders at 20 mg/kg (brain ischemia; 20 mg/kg) [%] | responders at 20 mg/kg (brain ischemia; 20 & 40 mg/kg) [%] | responders at 10 mg/kg (brain ischemia; 10 mg/kg) [%] | responders at 40 mg/kg (brain ischemia) [%]
Fc1ccc2[nH]cc(C3=CCC(N4CCN(Cc5ccccc5)CC4)CC3)c2c1 (stereo not drawn) [Example 49, 5-Fluoro-3-{4-[4-(phenylmethyl)-1-piperazinyl]-1-cyclohexen-1-yl]-1H-indole] | 1 to 10 | 0.0086 | 92 | – | – | – | –
Clc1ccc2[nH]cc(C3=CCC(N4CCN(Cc5ccccc5)CC4)CC3)c2c1 (stereo not drawn) [Example 50, 5-Chloro-3-{4-[4-(phenylmethyl)-1-piperazinyl]-1-cyclohexen-1-yl]-1H-indole] | 10 to 50 | 0.0314 | – | 100 | – | – | –
Fc1ccc2[nH]cc(C3=CCC(N4CCC(Cc5ccccc5)CC4)CC3)c2c1 (stereo not drawn) [Example 51, 5-Fluoro-3-{4-[4-(phenylmethyl)-1-piperidinyl]-1-cyclohexen-1-yl]-1H-indole] | 1 to 10 | 0.0111 | – | – | 67 | – | –
COc1cccc(CC2CCN(C3CC=C(c4ccc5c(c4)OCO5)CC3)CC2)c1 (stereo not drawn) [Example 52, 1-[4-(1,3-Benzodioxol-5-yl)-3-cyclohexen-1-yl]-4-[(3-methoxyphenyl)methyl]piperidine] | 1 to 10 | 0.0074 | – | – | – | 38 | –
Fc1ccc(F)c(CC2CCN(C3CC=C(c4ccc5c(c4)OCO5)CC3)CC2)c1 (stereo not drawn) [Example 54, 1-[4-(1,3-Benzodioxol-5-yl)-3-cyclohexen-1-yl]-4-[(2,5-difluorophenyl)methyl]piperidine] | 1 to 10 | 0.0036 | – | – | – | 38 | –
COc1cccc(CN2CCN(C3CC=C(c4ccc(F)cc4)CC3)CC2)c1 (stereo not drawn) [Example 60, 1-[(4-Fluorophenyl)-3-cyclohexen-1-yl]-4-[(3-methoxyphenyl)methyl]piperazine] | 1 to 10 | 0.0052 | – | – | – | 50 | –
Fc1ccc([C@H]2CC[C@@H](N3CCN(Cc4ccccc4)CC3)CC2)c2ccccc12 [Example 62-cis, Cis and trans 1-[4-(4-fluoro-1-naphthalenyl)-1-cyclohexyl]-4-(phenylmethyl)piperazine] | > 100 | 0.0069 | – | – | – | – | 63
Fc1ccc([C@H]2CC[C@H](N3CCN(Cc4ccccc4)CC3)CC2)c2ccccc12 [Example 62-trans, Cis and trans 1-[4-(4-fluoro-1-naphthalenyl)-1-cyclohexyl]-4-(phenylmethyl)piperazine] | > 100 | 0.0033 | – | – | – | – | 100
Fc1ccc([C@H]2CC[C@H](N3CCN(Cc4ccccc4)CC3)CC2)cc1 [Example 63, Trans 1-[4-(4-fluorophenyl)-1-cyclohexyl]-4-(phenylmethyl)piperazine] | 1 to 10 | 0.0007 | – | – | 75 | – | –
COc1cccc(CN2CCN([C@H]3CC[C@H](c4ccc(F)cc4)CC3)CC2)c1 [Example 65, Trans 1-[4-(4-fluorophenyl)-1-cyclohexyl]-4-[(3-methoxyphenyl)methyl]piperazine] | 1 to 10 | 0.0032 | – | – | – | 62 | –
